Assay results: patent US12678453B2, “Aerosolized formulations of HIV protease inhibitors for the treatment of airway reflux” (The Medical College of Wisconsin, Inc., priority 2020, dated 2026)
Square brackets hold non-standard residues; d marks the D form. Peptide text beside a SMILES is read from it. * marks the point of attachment. Sta = CC(C)C[C@H](N)[C@@H](O)CC(=O)O; Isovaleryl = CC(C)CC(=O)*

How the values were obtained:
[1] = tested on: mouse model of laryngopharyngeal reflux (LPR); assay: in vivo mouse model of LPR (laryngeal wounding and pepsin instillation, H&E histology); settings: for laryngeal histology (H&E) / pepsin-mediated laryngeal injury: pepsin pH7 group; for laryngeal histology (H&E): solvent (saline/PBS pH7) group
Description: An in vivo mouse model of direct application of pepsin, to mimic laryngeal exposure during LPR, and treatment with select HIV protease inhibitors by either gavage (oral systemic delivery) or aerosolized delivery (inhaled local delivery) was used. […] Each group contained 3 mice. Six-week-old female Jackson A/J mice (Jackson Laboratory, Bar Harbor, ME), weighed one day after arrival, then weekly, on Mondays thereafter.
Avertin was the preferred anesthetic for the brief application time needed as it has a rapid induction, produces a short surgical anesthesia, and has a rapid recovery. […] For this experiment, isoflurane inhalation was used. The isoflurane, self-scavenging machine, was operated at 3% isoflurane with 2.5 liters of air per minute (LPM). The induction chamber was charged for 3-5 minutes prior to the mice being anesthetized. Mice were placed in the induction chamber for 3-5 minutes prior to any wounding or administrations. Anesthesia records were kept according to IACUC policy.
Animals secured by a copper wire attached to the board from which the mice were suspended by their upper teeth. This caused the lower jaw to fall open naturally, exposing the larynx and permitting visualization with a Zeiss microscope at 6× magnification. […] Under direct visualization, the subglottis, glottis, and supraglottis regions were superficially scratched interiorly from distal to proximal as the needle was pulled out gently, making a mild abrasion. This procedure was performed twice, with one week between woundings.
To examine the effect pepsin at acid and nonacid pH, animals were treated for 2 weeks with laryngeal instillation of pepsin (20 μL at 0.3 mg/ml, pH 7.0 or pH 4.0) at 24, 48, and 72 h post wounding procedure. During weeks 3 and 4, animals were treated with laryngeal instillation for 3 days per week. Mice were sacrificed and samples collected on Friday of the fourth week.
The twelve mice in the aerosol groups were condition in the nose-only exposure chamber (Intox) on three separate days by exposure to dry air for 10 min. Beginning the Monday (day 1) of the next week, aerosols and gavages were performed on the mice Monday through Friday (5 exposures). The aerosols and gavages continued Monday-Friday for three more weeks, with the final week consisting of 4 total exposure days, Monday-Thursday, (19 total) with the mice sacrificed and tissues harvested on Friday. Each mouse received two woundings and 12 solvent or pepsin administrations. Wounding and intratracheal administrations were concurrent with the aerosol and gavage treatments. The first wounding was performed on day 2, followed by solvent or pepsin administrations on days 3, 4, and 5. The second wounding was performed on day 8, followed by solvent or pepsin administrations on days 9, 10, and 11. In weeks 3 and 4, mice received solvent or pepsin administrations on days 16, 17, and 18 and days 23, 24, and 25. Day 26 was sacrifice and tissue harvest.
A 10 mL suspension of drug in ethanol was placed in the baffle, such that the concentration would remain constant at the equilibrium solubility. Droplets of ethanol containing dissolve drug were generated by an ultrasonic atomizer (nominal frequency 1.7 MHz) entrained by air at a flow rate of 0.5 LPM with a custom-built glass baffle (University of Minnesota, Department of Chemistry Glass Shop). The aerosol cloud was then passed through a cylindrical drying column containing an annular ring of charcoal. The ethanol is removed and the emanating dry aerosol particles of pure drug were then directed into the exposure chamber.
The mass deposited on the filters in a fixed collection time was measured gravimetrically, and with the collection time, allowed calculation of the total output rate (mg/min). The aerosol concentration (mass/volume of air) was calculated by dividing the total output rate by the air flow rate (0.5 LPM).

[2] = preliminary 12-day toxicity study of aerosolized fosamprenavir; type: in vivo, mice; settings: 12-day exposure
Method: In the following Example, the inventors used a small-scale powder disperser (SSPD) to aerosolize Fosamprenavir powder, and monitored particle size distribution by an Optical Particle Sizer (OPS). The SSPD inhales the powder through a venturi aspirator, which is then sampled through OPS at 1 L/min of flow (FIG. 11).
A preliminary 12-day toxicity study was conducted in mice. […] This was the only animal affected, across 15 treated mice, so this is suspected to be unrelated to the fosamprenavir treatment.

[3] = cited from earlier work
[4] = tested on: 14 relevant biomarkers for inflammation and toxicity; assay: Luminex assay of bronchiolar lavage samples; type: in vivo, mice; settings: control versus lowest dose
Description: Bronchiolar lavage samples were collected from all mice and a Luminex assay was used to measure 14 relevant biomarkers for inflammation and toxicity.

[5] = known clinical profile; cited from earlier work
[6] = cited from earlier work; remark: listed apart in the source
[7] = tested on: pepsin; settings: Roberts 2003; cited from earlier work

| SMILES | laryngeal histology (H&E) / pepsin-mediated laryngeal injury ([1]; aerosol) | laryngeal histology (H&E) ([1]; aerosol) | laryngeal histology (H&E) / pepsin-mediated laryngeal injury ([1]; gavage) | laryngeal histology (H&E) ([1]; gavage) | pepsin-mediated laryngeal injury (multi-layered, reactive epithelia and cell apoptosis) ([1]; inhalation, 1 mg/kg/d) | pathology in nasal cavity, larynx, esophagus, trachea, lung, liver, and kidney tissues ([2]; mice) | heart pathology ([2]; one of 15 treated mice, suspected to be unrelated to treatment) | pharmacokinetics ([3]; in mice) | oral bioavailability ([3]; prodrug compared with amprenavir) | IL-6 in bronchiolar lavage [4] | side effects / tolerability [5] | water solubility [6] | affinity for pepsin [7] |
| --- | --- | --- | --- | --- | --- | --- | --- | --- | --- | --- | --- | --- | --- |
| CC(C)CN(C[C@@H](OP(=O)(O)O)[C@H](Cc1ccccc1)NC(=O)O[C@H]1CCOC1)S(=O)(=O)c1ccc(N)cc1 [fosamprenavir, [(3 S)-oxolan-3-yl]N-[(2S,3R)-4-[(4-aminophenyl)sulfonyl-(2-methylpropyl)amino]-1-phenyl-3-phosphonooxybutan-2-yl]carbamate] | normal histology | normal histology | normal histology | normal histology | prevented pepsin mediated laryngeal injury | No pathology was observed | significant inflammation | excellent pharmacokinetics | improved oral bioavailability | showed significance | favorable tolerability profile |  |  |
| CC(C)CC(=O)N[C@H](C(=O)N[C@H](C(=O)N[C@@H](CC(C)C)[C@@H](O)CC(=O)N[C@@H](C)C(=O)N[C@@H](CC(C)C)[C@@H](O)CC(=O)O)C(C)C)C(C)C [pepstatin] (Isovaleryl-VV[Sta]A[Sta]-OH) |  |  |  |  |  |  |  |  |  |  |  | poor water-solubility | subnanomolar |
